Experimental data: US8415128B2, “Mitigation of photodamage in analytical reactions” (Pacific Biosciences of California, Inc., priority 2005, dated 2013)

Key:
Format in all cases: biochemical
DNA polymerase enzymes = experiment: Chromatide incorporation activity after photodamage step on planar glass substrates; conditions: relative to a non-illuminated control region; Laser Power 2.5 μW/μm^2; baseline 10 mM MEA-Ac, 0.1×GO-Cat, 25 mM Tris-Ascorbate; Trolox at 1 mM, PPD at 100 mM
Method: In the experiment, DNA polymerase enzymes were immobilized on planar glass substrates (fused silica microscope slides) and subjected to reaction conditions under which DNA synthesis was taking place. Each reaction mixture also included a baseline level of photodamage mitigating agents (10 mM MEA-Ac, 0.1×GO-Cat, 25 mM Tris-Ascorbate). The reactions were carried out under laser illumination of varying power.
Following the photodamage step, all the solution was washed from the chip and replaced with ordinary buffers and dNTPs. In addition, a base labeled fluorescent nucleotide (chromatide) was added to provide a fluorescent signal of incorporation activity following the photodamage step, above. […] The activity of the enzyme was measured based upon the relative fluorescence of the DNA on the slide.
Table 1, below provides the percent chromatide relative to a non-illuminated control region, for each different additive at the listed laser power.

[1] = test system: modified φ29 DNA polymerase; experiment: Bulk DNA synthesis under laser illumination, agarose gel image scanning; conditions: dye labeled tetraphosphates (reaction condition 3); 5 minute illumination; 5 mM DTT or 100 mM MEA
Method: In a first assay, synthesis reaction mixtures contained a modified φ29 DNA polymerase, 300 nM DNA template, three native nucleoside triphosphates (at 10 μM each) and a fluorescent dye labeled nucleoside polyphosphate (at 10 μM) in synthesis buffer (50 mM Tris-HCl, pH 7.5, 75 mM KCL, 20 mM (NH4)2SO4, 10 mM BME, 0.7 mM MnCl2). Each of the reactions were carried out at room temperature (22° C.) for the desired illumination period, ranging from 1 minute to one hour.
The experiment included two sets each of three different reaction mixtures: (1) a synthesis reaction using only native, e.g., unlabeled nucleoside triphosphates; (2) a synthesis reaction including two native nucleoside triphosphates, an Alexa 488 labeled dCTP analog, and an Alexa 568 labeled dTTP; and (3) a synthesis reaction including two native nucleoside triphosphates, an Alexa 488 labeled dC4P analog (tetraphosphate), and an Alexa 568 labeled dT4P. Each different synthesis reaction conditions included either no illumination or laser illumination during synthesis for five minutes with wavelengths of 488, 568 and 647 nm, followed by 60 minutes of nonilluminated synthesis. […]
The gel was subjected to image scanning (Molecular Dynamics Typhoon 9400, with Typhoon scanner Control Version 2; gel image quantified with Molecular Dynamiics ImageQuant ver. 5.2). […]

[2] = test system: DNA polymerase immobilized within zero mode waveguides; experiment: DNA synthesis in zero mode waveguide arrays with and without laser illumination; conditions: 160 mM DTT, without MEA; ZMW arrays
Method: A similar set of experiments to those described above were performed using DNA polymerase immobilized within zero mode waveguides in an array of waveguides. As above, the first experiment was designed to identify whether laser illumination caused damage to immobilized polymerase enzymes on nanostructured surfaces. The surfaces included ZMW arrays in which the polymerase enzyme was adsorbed to the surface. […] The illumination profile is shown in the first panel (far left), while the image of the stained DNA product in the illuminated synthesis is shown in the adjacent panel (middle left). […] The middle right and far right panels show non-illuminated waveguide arrays, and indicate substantially more DNA is present than in the illuminated sample, again showing photo-induced damage to the polymerase activity in the waveguide arrays. FIG. 4B illustrates a first set of waveguide arrays in which similar synthesis reactions were carried out in the presence of no additional mitigation agents (e.g., only 10 mM βME), or in the presence of 5 mM DTT and 100 mM MEA.

SMILES	% Chromatide activity (DNA polymerase enzymes)	ratio of product when exposed to laser illumination to that in the absence of such illumination [1]	amount of damaged polymerase activity [2]
C1CN2CCN1CC2 [DABCO, diazobicyclooctane]	20%		
Cc1c(C)c2c(c(C)c1O)CCC(C)(C(=O)O)O2 (stereo not shown) [Trolox]	41%		
NCCS [MEA, mercaptoethylamine]		1.04	
Nc1ccc(N)cc1 [PPD, p-phenylenediamene]	58%		
O[C@H](CS)[C@H](O)CS (racemic) [DTT, dithiothreitol]		0.59	improvements
Cc1cc(C(C)(C)C)c(O)c(C(C)(C)C)c1 [BHT, butylated hydroxytoluene]	22%		
